According to ChEMBL document CHEMBL1795338, “Identification of pentacyclic triterpenes derivatives as potent inhibitors against glycogen phosphorylase based on 3D-QSAR studies” (Eur J Med Chem, 2011):

The compounds below were run against T1, Glycogen phosphorylase, muscle form (Oryctolagus cuniculus, UniProt P00489) (assay: Inhibition of rabbit muscle glycogen phosphorylase A assessed as release of phosphate from glucose-1-phosphate after 25 mins by microplate reader based method).
T1 sequence (P00489 whole entry): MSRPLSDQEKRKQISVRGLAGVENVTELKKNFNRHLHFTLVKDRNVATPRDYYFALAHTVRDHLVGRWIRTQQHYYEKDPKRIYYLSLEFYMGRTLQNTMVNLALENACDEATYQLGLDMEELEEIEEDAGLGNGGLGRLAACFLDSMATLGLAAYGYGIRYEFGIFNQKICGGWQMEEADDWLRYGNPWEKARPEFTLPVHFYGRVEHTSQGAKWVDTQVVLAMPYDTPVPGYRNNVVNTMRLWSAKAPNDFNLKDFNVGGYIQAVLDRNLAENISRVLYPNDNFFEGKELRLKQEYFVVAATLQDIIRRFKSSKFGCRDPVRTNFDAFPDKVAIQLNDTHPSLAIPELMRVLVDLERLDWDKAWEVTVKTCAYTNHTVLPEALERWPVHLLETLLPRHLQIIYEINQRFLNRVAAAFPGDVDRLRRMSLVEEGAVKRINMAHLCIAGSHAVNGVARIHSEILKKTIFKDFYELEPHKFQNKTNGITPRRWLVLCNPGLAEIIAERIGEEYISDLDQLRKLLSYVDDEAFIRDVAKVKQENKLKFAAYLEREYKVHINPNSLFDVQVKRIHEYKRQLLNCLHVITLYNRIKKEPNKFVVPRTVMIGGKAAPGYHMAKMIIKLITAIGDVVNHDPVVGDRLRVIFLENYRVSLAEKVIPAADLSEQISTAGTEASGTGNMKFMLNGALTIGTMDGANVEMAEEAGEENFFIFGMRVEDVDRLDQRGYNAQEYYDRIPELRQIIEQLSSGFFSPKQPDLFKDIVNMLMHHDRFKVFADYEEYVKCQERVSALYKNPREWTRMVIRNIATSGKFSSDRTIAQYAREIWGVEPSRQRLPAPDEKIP

Row | SMILES | IC50 [µM]
1 | C[C@H]1[C@H](C)CC[C@]2(C(=O)OC3CC3)CC[C@]3(C)C(=CC[C@@H]4[C@@]5(C)C[C@@H](O)[C@H](O)C(C)(C)[C@@H]5CC[C@]43C)[C@H]12 | 91.2
2 | C[C@H]1[C@H](C)CC[C@]2(C(=O)OCCN3CCCCC3)CC[C@]3(C)C(=CC[C@@H]4[C@@]5(C)C[C@@H](O)[C@H](O)[C@@](C)(CO)[C@@H]5CC[C@]43C)[C@H]12 | 132
3 | C[C@H]1[C@H](C)CC[C@]2(C(=O)OCCN3CCOCC3)CC[C@]3(C)C(=CC[C@@H]4[C@@]5(C)C[C@@H](O)[C@H](O)[C@@](C)(CO)[C@@H]5CC[C@]43C)[C@H]12 | 173
4 | CCCC(=O)O[C@@H]1C[C@]2(C)[C@H]3CC=C4[C@@H]5[C@@H](C)[C@H](C)CC[C@]5(C(=O)O)CC[C@@]4(C)[C@]3(C)CC[C@H]2C(C)(C)[C@H]1OC(=O)CCC | 78.7
5 | C[C@H]1[C@H](C)CC[C@]2(C(=O)OCn3cccn3)CC[C@]3(C)C(=CC[C@@H]4[C@@]5(C)C[C@@H](O)[C@H](O)C(C)(C)[C@@H]5CC[C@]43C)[C@H]12 | 62.1
6 | CCOC(=O)COC(=O)[C@]12CC[C@@H](C)[C@H](C)[C@H]1C1=CC[C@@H]3[C@@]4(C)C[C@@H](O)[C@H](O)C(C)(C)[C@@H]4CC[C@@]3(C)[C@]1(C)CC2 | 102
7 | CCCOC(=O)[C@]12CC[C@@H](C)[C@H](C)[C@H]1C1=CC[C@@H]3[C@@]4(C)C[C@@H](O)[C@H](O)C(C)(C)[C@@H]4CC[C@@]3(C)[C@]1(C)CC2 | 82.5
8 | CCCCOC(=O)[C@]12CC[C@@H](C)[C@H](C)[C@H]1C1=CC[C@@H]3[C@@]4(C)C[C@@H](O)[C@H](O)C(C)(C)[C@@H]4CC[C@@]3(C)[C@]1(C)CC2 | 92.1
9 | CCC(=O)O[C@@H]1C[C@]2(C)[C@H]3CC=C4[C@@H]5[C@@H](C)[C@H](C)CC[C@]5(C(=O)O)CC[C@@]4(C)[C@]3(C)CC[C@H]2C(C)(C)[C@H]1OC(=O)CC | 73.7
10 | CCCC(=O)O[C@@H]1C[C@]2(C)[C@H]3CC=C4[C@@H]5[C@@H](C)[C@H](C)CC[C@]5(C(=O)O)CC[C@@]4(C)[C@]3(C)CC[C@H]2C(C)(C)[C@H]1O | 77.9

Compounds with a lower IC50, results first:

Row | IC50 [µM] | SMILES
11 | 43.4 | COS(=O)(=O)[C@@H]1C[C@]2(C)[C@H]3CC=C4[C@@H]5[C@@H](C)[C@H](C)CC[C@]5(C(=O)OCc5ccccc5)CC[C@@]4(C)[C@]3(C)CC[C@H]2C(C)(C)[C@H]1O
12 | 33 | COC(=O)[C@@]1(C)[C@@H]2CC[C@]3(C)[C@H](CC=C4[C@@H]5[C@@H](C)[C@H](C)CC[C@]5(C(=O)O)CC[C@]43C)[C@@]2(C)C[C@@H](OC(C)=O)[C@@H]1OC(C)=O
13 | 37.7 | CC(=O)O[C@@H]1C[C@]2(C)[C@H]3CC=C4[C@@H]5[C@@H](C)[C@H](C)CC[C@]5(C(=O)O)CC[C@@]4(C)[C@]3(C)CC[C@H]2C(C)(C)[C@H]1O
14 | 3.26 | CCCCCC(=O)O[C@@H]1C[C@]2(C)[C@H]3CC=C4[C@@H]5[C@@H](C)[C@H](C)CC[C@]5(C(=O)O)CC[C@@]4(C)[C@]3(C)CC[C@H]2C(C)(C)[C@H]1O
15 | 41.2 | C[C@H]1[C@H](C)CC[C@]2(C(=O)OCc3ccccc3)CC[C@]3(C)C(=CC[C@@H]4[C@@]5(C)C[C@@H](O)[C@H](O)C(C)(C)[C@@H]5CC[C@]43C)[C@H]12
16 | 46.7 | CCOC(=O)[C@]12CC[C@@H](C)[C@H](C)[C@H]1C1=CC[C@@H]3[C@@]4(C)C[C@@H](O)[C@H](O)C(C)(C)[C@@H]4CC[C@@]3(C)[C@]1(C)CC2
17 | 31.8 | C[C@H]1[C@H](C)CC[C@]2(C(=O)OCc3ccccc3)CC[C@]3(C)C(=CC[C@@H]4[C@@]5(C)C[C@@H](O)C(=O)C(C)(C)[C@@H]5CC[C@]43C)[C@H]12
18 | 5.1 | C[C@H]1[C@H](C)CC[C@]2(C(=O)O)CC[C@]3(C)C(=CC[C@@H]4[C@@]5(C)C[C@@H](OC(=O)c6ccccc6)[C@H](O)C(C)(C)[C@@H]5CC[C@]43C)[C@H]12
19 | 35 | CC(=O)O[C@@H]1C[C@]2(C)[C@H]3CC=C4[C@@H]5[C@@H](C)[C@H](C)CC[C@]5(C(=O)O)CC[C@@]4(C)[C@]3(C)CC[C@H]2C(C)(C)[C@H]1OC(C)=O
